Earlier results as cited in US20260041710A1, “A NOVEL COMBINATION FOR ITS UTILITY IN MICRO AND MACRO VASCULAR COMPLICATIONS” (priority 2022, published 2026).
Read-outs that look alike come from different tables or passages of the source.

Experiments:
[1] = tested on: 54 Irish patients of diabetic retinopathy; conditions: single injection

Substance: Bevacizumab: full-length antibody that inhibits all isoforms of the VEGF-A family
- BCVA (1 month after intravitreal injection, P<0.001): 0.76
- BCVA (before intravitreal injection): 0.90
- patients with greater than 50 microns reduction of macular thickness [1]: 9.2%
- patients with greater than 100 microns reduction of macular thickness [1]: 20.3%
- patients with less than 50 microns reduction in macular thickness [1]: 40.7%
- patients without any improvement [1]: 29.6%
- patients with greater than 50 microns reduction of macular thickness ([1]; of 54 patients): 5 patients
- patients with less than 50 microns reduction in macular thickness ([1]; of 54 patients): 22 patients
- patients without any improvement ([1]; of 54 patients): 16 patients
